The test system of one series is red blood cells (RBCs). Description: Hemolysis assay. Conditions: up to 10 μM, 1 and 72 h. In kind it is cell-based.
The nature of series [1]: Single-point microsomal metabolic stability, human. In kind it is in vitro ADME. To be noted: human liver microsomes, 1 µM. On the procedure:
(§1) 1.8. Microsomal metabolic stability studies […]
(§2) rat IGS, Xenotech), and mouse (male mouse CD1, Xenotech) liver microsomes (0.4 mg/ml) for 30 min at 37 °C. Reactions were quenched by adding ice-cold acetonitrile containing […]
(§3) disappearance of the parent compound. Half-life, clearance, and hepatic excretion ratios were determined using standard equations.6,7 Propranolol. […]

The nature of a further series: Cyclic voltammetry. In kind it is physicochemical. From the text:
It is known that Fe^2+/Fe^3+ redox chemistry has an important role in the bioactivity of ferrocene derivatives.[33] The production of reactive oxygen species (ROS) is one of the modes of action of ferroquine and other ferrocene derivatives[34] and is linked to the correlation between their bioactivity and electrochemical behavior. We determined whether a similar correlation could be made for the mixed-ligand platinum(II) complexes reported herein given that metal centers have the potential to be oxidized and reduced. The electrochemistry of the complexes was studied using cyclic voltammetry (CV), which uses a triangular potential waveform. The CV experiments were performed in either dry MeOH or DMF containing tetrabutylammonium chloride (TBACl) as the supporting electrolyte. The working electrode was glassy carbon with a platinum wire as the counter electrode and Ag/AgCl as the reference. The anodic (Epa) and cathodic (Epc) peak potentials at 0.1 V/s and half-wave potentials (E1/2) were measured (Table 3). All of the tested complexes undergo reversible one-electron Pt^2+/Pt^+ reductions (Figures S38–S46). Complexes C2, C4, and C8 undergo a second nonreversible reduction (Epc2), which is most likely ligand-based and linked to reductions of the substituent on the bpy. Looking at SAR2, the more electron-withdrawing the substituent, the […] the E1/2 (V vs Fe/Fe^+) value was. This trend was expected, as a more electron-withdrawing substituent reduces the electron density around the metal center, making it easier for the metal to be reduced from Pt^2+ to Pt^+. […] This is also the case for other bpy-containing platinum(II) complexes that only undergo reductions.[35],[36] […]
For the cyclic voltammetry experiments a solution of the test compound (1 x 10-3) in DMSO (3 mL) is added to the electrolyte solution (0.1 M tetrabutylammonium chloride (TBACl) in DMSO). The electrochemical measurements were obtained using a Basi Epsilon Eclipse Electrochemical Analyzer Potentiostat and the CV graphs were generated using Excel. The working electrode was glassy carbon (GC) with platinum wire as the counter electrode (CE) and Ag/AgCl as the reference. […]

Series [2] relates to Chinese hamster ovary (CHO) cell line. Description: MTT cytotoxicity assay. It counts as cell-based. Conditions: cytotoxicity, MTT, 48 h; N, n = 1, 3; read-out: CHO IC50.
Series [3] in a line: Glutathione binding UV-Vis titration. To be noted: GSH binding.
Method: The binding of glutathione (GSH) to the platinum(II) complexes was monitored by observing the decrease in the metal-to-ligand-charge transfer (MLCT) band via a UV-Vis spectrophotometer.8 For this, 1–10 µL aliquots of GSH (0.4 M) in a PBS and DMSO (0.01% DMSO, v/v) mixture was added to a cuvette containing the relevant metal complex (50 µM) in the same solvent mixture. After each addition, the solution was stirred and allowed to incubate at room temperature for 3–5 minutes before recording the absorption spectrum between the wavelength range of 250–700 nm. These titrations were performed in triplicate and the average binding constants (logK) were reported with the standard error of the mean (SEM). The logK values were calculated from the best-fit model (describing a 1:1 association) using Equation 1.
Series [4] concerns early-stage gametocytes (NF54-PfS16-GFP-Luc). Description: Luciferase reporter assay, early-stage gametocytes. In kind it is cell-based, Plasmodium falciparum. To be noted: single biological repeat. On the procedure: All the complexes were tested for their early- and late-stage gametocyte activity in a dual-point assay (1 μM and 5 μM). […]
1.5.In vitro activity against gametocyte stages
PfNF54 gametocytes were prepared and isolated according to the method reported by Reader […]
The in vitro gametocyte activity of the synthesized complexes was determined using a luciferase reporter line-based assay.
NF54-PfS16-GFP-Luc parasites were used for the stage-specific assessment of gametocytocidal activity. Early-stage gametocyte (stage I-III) experiments were performed on day 5 (representing >90% of early-stage and late-stage gametocyte (stages IV/V) experiments were performed on day 10. In each experiment, assays were set up with the use of 2-3% […]
Luciferase activity was determined in 30 µL parasite lysates by adding luciferin substrate (30 µL) (Promega Luciferase Assay System) at room temperature. […]

In a further series the test system is PfK1 ABS parasites. It counts as cell-based, Plasmodium falciparum. The method, then:
(§4) The parasites were incubated under drug […]
(§5) incubation, parasite survival was determined by adding equal volumes of parasite suspension (100 µL) and SYBR Green I lysis buffer (0.2% µL/mL of 10 000x SYBR Green I, 20 mM Tris-HCl, pH 7.5, 5 mM EDTA, 0.008% saponin (w/v) and 0.08% Triton x-100). This was incubated for 1 hour at room temperature in the dark. […]

Another series concerns PfNF54 ABS parasites. Kind of series: SYBR Green I-based proliferative assay, PfNF54 ABS parasites. It counts as cell-based, Plasmodium falciparum. To be noted: ABS, SYBR Green I, 96 h; mean ± S.E., N = 3 (no S.E.: N = 1). On the procedure: as §4, §5
Series [5] in a line: Single-point microsomal metabolic stability, mouse. To be noted: mouse liver microsomes, 1 µM. It counts as in vitro ADME. The method, then: as §1, §2, §3
Series [6] in a line: Kinetic solubility by HPLC (pH 6.5). Conditions: kinetic, HPLC, pH 6.5. On the procedure:
1.7. Kinetic solubility by HPLC (pH 6.5)
Solubility was measured at pH 6.5 using an adapted miniaturized shake-flask method, in 96-well plate format.4,5 Briefly, 4 µL of a 10 mM stock in DMSO was added to a 96-well plate and evaporated using a GeneVac system. Phosphate buffer pH 6.5 was then added to the wells […]
At the end of this incubation, the […]
in the analysis plate. Analysis was then performed by HPLC-DAD and the solubility of each sample was determined from the corresponding calibration curve. […]

Experimental findings from paper PMC11912270, “Synthesis and SAR Studies of Acyl-Thiourea Platinum(II) Complexes Yield Analogs with Dual-Stage Antiplasmodium Activity” (ACS Medicinal Chemistry Letters, 2025) are described below.

Where only a bound is given, the exact number is not on record here.

Method for red blood cells (RBCs): The hemolysis assay was conducted in a 96-well round-bottom plate. A 10 mM stock of the test compound in DMSO was diluted to 10 μM using complete growth medium. Complete growth medium (100 μL) was added to all wells in columns 1 and columns 3–12. The test compound in a complete growth medium (200 μL) were added in duplicate to well 2 and serially diluted two-fold down the plate (from wells 2–11). Triton X-100 (4%, v/v) was used as
RBCs in complete growth medium
(2% hematocrit) were lysed via three freeze/thaw cycles (-80 °C/37 °C) and were added to all wells in column 1 (100 µL). Intact RBCs in complete growth medium were added to wells 2– 12 and the plates were incubated at 37 °C for either 1 hour or 72 hours. After removing the plates from the incubator, each well was mixed thoroughly with a multichannel pipette and spun in a centrifuge at 750 rcf for 5 minutes. The supernatant was transferred to a 96-well flat-bottom plate and the absorbance of each well read on a microplate reader (Thermo Scientific
Percentage hemolysis was calculated using Equation 2 and the graphs generated using GraphPad Prism 10.
% ℎ𝑒𝑚𝑜𝑙𝑦𝑠𝑖𝑠 = (𝐴𝑠 ― 𝐴0) × 100 𝑬𝒒. 𝟐

`Nc1cc[n+]2c(c1)-c1cc(N)cc[n+]1[Pt-2]21[O+]=C(c2ccccc2)N=C(N(CCO)CCO)[S]1.[Cl-]` [C6]: the “in vitro hemolytic activity” value in the series with red blood cells (RBCs) is reported as “do not induce hemolysis”. For the same compound, in series [1], the “Microsomal metabolic stability (% remaining after 30 min) Human” value is reported as 43 % remaining. In addition, the Epa1 result in “Cyclic voltammetry” (anodic peak potential, 0.1 V/s) is “–1.138 V”. Moreover, the Epc1 entry in the series “Cyclic voltammetry” (cathodic peak potential, 0.1 V/s) is recorded as “–1.068 V”. The values for the E1/2 entry in the series “Cyclic voltammetry” (half-wave potential) and in the series “Cyclic voltammetry” (half-wave potential corrected to ferrocene) were “–1.103 V vs Ag/Ag^+” and “–1.643 V vs Fe/Fe^+”, respectively. Further, the concentration for half-maximal inhibition (IC50) was over 50000 nM in series [2]; 102 ± 13 nM in the series on PfK1 ABS parasites (ABS, SYBR Green I, 96 h, mean ± S.E.); 36.3 ± 0.6 nM in the series on PfNF54 ABS parasites. In series [3] (N = 3, PBS), the “Average logK ± SEM” value came out at 2.58 ± 0.19. For the same compound, the “LogK N = 1” value in series [3] (replicate N = 1) is listed as 2.80. In [3] (replicate N = 2), the “LogK N = 2” value came to 2.21. The “LogK N = 3” value in series [3] (replicate N = 3) is given as 2.74. Also, the “EG (% inhibition) 1 µM” value in [4] (1 µM) is 13.7 % inhibition. Besides, in [4] (5 µM), the “EG (% inhibition) 5 µM” value is given as 20.1 % inhibition. The “RI (resistance index)” value with PfK1 ABS parasites (RI = PfK1 IC50/PfNF54 IC50) is recorded as 2.8. In [5], the “Microsomal metabolic stability (% remaining after 30 min) Mouse” value came out at 94 % remaining. Besides, in [6], the “Aqueous solubility pH 6.5” value is on record as 100 μM.
